In patent US20220401390A1, “TREATMENTS OF DIABETIC MACULAR EDEMA AND IMPAIRED VISUAL ACUITY” (KALVISTA PHARMACEUTICALS LIMITED, priority 2019, published 2022):
Entries after “also recorded” stand apart in the source; their conditions may differ.

Tests used:
Type in all cases: in vivo, human
[1] = Study 1: plasma profile following intravitreal injection
Excerpt: (§1) The secondary objectives were: • To evaluate the plasma profile of the compound of Formula A following intravitreal injection in adult male and female subjects with central involved diabetic macular edema. • To evaluate the pharmacodynamic effect of intravitreal injection of the compound of Formula A in adult male and female subjects with central involved diabetic macular edema.
(§2) Each subject returned on Day 1, 7, 14, 28 and 56 for safety and ophthalmic assessment. Pharmacokinetic assessment was also taken. In addition, the subject was contacted by the Study Site on Day 3 (+1-1 day) by telephone to inquire about the subject's visual wellbeing and to ask about any adverse events.
(§3) Single 100 μL intravitreal injection of: • 1 μg-10 μg/mL of the compound of Formula A • 3 μg-30 μg/mL of the compound of Formula A • […] of the compound of Formula A

[2] = test system: subjects with center involved diabetic macular edema; test: Study 1: pharmacodynamic effect (visual acuity, retinal thickness); settings: for Mean improvement in visual acuity compared with baseline: single injection
Method: as §1
(§4) Following the signing of informed consent, subjects attended the clinic where screening assessments were recorded (Clinic Visit 1). When deemed eligible, subjects attended the clinic where baseline measurements were recorded (recorded as Day 0, Clinic Visit 2). Following confirmation of eligibility and the taking of baseline ophthalmic measurements, a single intravitreal injection of the compound of Formula A, was administered to the study eye as per Diabetic Retinopathy Clinical Research Network (DRCR.net) protocol.
as §2, §3
(§5) • Best Corrected Visual Acuity as measured by ETDRS EVA • Intraocular pressure • Color vision • Multifocal Electroretinogram (mfERG) • Humphrey Visual Field 24-2 (HVF 24-2) • Treatment-Emergent Adverse Events (TEAEs) • Changes on ophthalmic examination • Clinical laboratory test results • Vital signs • ECG findings

[3] = test system: subjects with center involved diabetic macular edema; test: as above; settings: Day 84, 10 μg dose
[4] = test system: subjects with ciDME who have had prior anti-VEGF treatment; test: Study 2: local and systemic safety and tolerability
Excerpt: To evaluate the local and systemic safety and tolerability of monthly dosing of the injections of the compound of Formula A in subjects with ciDME who had had prior anti-VEGF treatment.
This study was a randomized, sham-controlled, double-masked, 3-arm study into efficacy, safety and tolerability of monthly intravitreal injections of the compound of Formula A as a monotherapy in adult subjects with ciDME. The subjects had all had prior anti-VEGF treatment.
The 129 eligible subjects were randomized approximately 1:1:1 into three arms: • 1. Arm 1, N=44: • Received injections of 3 μg/eye (100 μL injection volume at a concentration of 30 μg/mL) of the compound of formula A; • 2. Arm 2, N=41: • Received injections of 6 μg/eye (100 μL injection volume at a concentration of 60 μg/mL) of the compound of formula A; and • 3. Arm 3, N=44: • Received a sham procedure; during a 12-week, double-masked treatment period (a total of 4 doses given at approximately monthly intervals).
Approximately twenty-four (24) hours after each study drug administration or sham procedure on Day 1 and Weeks 4, 8, and 12, subjects were contacted by telephone to evaluate any reported AEs and changes in concomitant medications. In the event of any reported ocular or systemic AEs that were considered by the Investigator to be a possible cause for concern, the subjects returned to the clinic for assessment as soon as possible. • 3. Follow up Phase:
Safety variables of interest in this study are: • AEs; • Ophthalmic and physical findings; • Laboratory test results (clinical chemistry, hematology, and urinalysis); • Vital signs (SBP, DBP, PR, and respiratory rate).

[5] = test system: subjects with center involved diabetic macular edema; test: Study 1: safety and tolerability of single ascending intravitreal doses
Excerpt: Study—an Open Label, Single Ascending Dose Study to Investigate the Safety and Tolerability of the Compound of Formula A Administered by Intravitreal Injection in Subjects with Center Involved Diabetic Macular Edema and Reduced Vision
The primary objective of the trial was to evaluate the local and systemic safety and tolerability of single ascending doses administered via intravitreal injection of the compound of Formula A in adult male and female subjects with central involved diabetic macular edema.
as §4, §2
Once the highest safe and tolerated (or practical) dose had been established, the study proceeded to Part 2 in which 5 additional subjects were treated with the established highest safe and tolerated (or practical) dose according to the same protocol with the same procedures performed as described for subjects enrolled into Part 1.
as §3, §5

[6] = whole study population, no control group
[7] = of the 14 subjects, single intravitreal injection, all dose groups

Question: What does the source list for CCOc1ccc(C[C@@H](NC(=O)c2ccccc2)C(=O)N[C@@H](Cc2ccccc2)C(=O)NCc2ccc(CN)cc2)cc1 [compound of Formula A, N—[(R)-1-[(S)-1-(4-Aminomethyl-benzylcarbamoyl)-2-phenyl-ethylcarbamoyl]-2-(4-ethoxy-phenyl)-ethyl]-benzamide]?
Answer: Time post dosing up to which plasma concentrations were quantifiable ([1]; 3 μg/eye dose): up to 24 hours; Time post dosing up to which plasma concentrations were quantifiable ([1]; 10 μg/eye): up to 24 hours; Time post injection up to which plasma concentrations were quantifiable ([1]; intravitreal injection of 1 μg/eye): up to 4 hours; Mean improvement in visual acuity compared with baseline ([2]; Day 7, average across all dose groups): 0.7 letters; Mean improvement in visual acuity compared with baseline ([2]; Day 14, average across all dose groups): 1.0 letters; Mean improvement in visual acuity compared with baseline ([2]; Day 28, average across all dose groups): 1.9 letters; Mean improvement in visual acuity compared with baseline ([2]; Day 56, average across all dose groups): 2.8 letters; Mean improvement in visual acuity ([2]; Day 84, 1 μg dose): 3.3 letters; Mean improvement in visual acuity ([2]; Day 84, 3 μg dose): 2.0 letters; Mean improvement in visual acuity compared with baseline ([2]; Day 84, average across all dose groups): 4.1 letters; Mean retinal thickness post-injection (in words) [2, 6]: trends of improvement; also recorded: reduction; Mean visual acuity post-injection (in words) [2, 6]: trends of improvement; also recorded: small improvement; Mean improvement in visual acuity [3]: 5.5 letters; AEs that led to discontinuation ([4]; 6 μg arm): one retinal neovascularization; Severity of reported adverse events (AEs) ([4]; majority of reported AEs, all arms): mild; Subjects in whom the treatment was safe and well-tolerated ([4]; monthly intravitreal injections, 3 μg or 6 μg): > 99%; Adverse events leading to withdrawal from the study ([5]; 14 subjects, all dose groups): nor did any event lead to withdrawal from the study; Deaths or other serious adverse events ([5]; 14 subjects, all dose groups): no deaths or other serious adverse events; Severe events ([5]; 14 subjects, all dose groups): 1 patient; Study drug-related events ([5]; 14 subjects, all dose groups): 2 patients; Subjects who reported at least one adverse event (%) [5, 7]: 71%; Subjects who reported at least one adverse event (number) [5, 7]: 10 subjects; Adverse systemic effect ([5]; review of adverse events, laboratory results, ECG and physical examinations): no evidence of any adverse effect associated with systemic exposure; Tolerability of intravitreal injection ([5]; single intravitreal injection, 1, 3 or 10 μg): well tolerated
